Data: US20080152589A1, “Diagnostics and Therapeutics of Neurological Disease” (priority 2006, published 2008)

Assays:
[1] = self-administered questionnaire on lithium-induced side-effects, stratified by GSK3B and MAPT haplotype; type: in vivo, human; conditions: for Odds Ratio, hand tremor present vs absent (pooled High GSKΔexon9 and Low GSKΔexon9+11 haplotypes vs others): lithium treatment; for mean overall side-effect score (SE score): patients administered lithium, 24 items, maximum total score 96
Protocol: Participants (n=84) suffering from a neurological disease who had been administered lithium as a therapeutic were assessed for the prevalence and pattern of lithium-induced side-effects using a self-administered questionnaire. This questionnaire was a modified version of the data collection form from a clinical trial, asking participants to rate 24 side-effect items as ‘Not present’, ‘Mild’, ‘Moderate’, ‘Severe’ and ‘Very Severe’. The 24 items listed include: nausea, vomiting, diarrhea, constipation, weight gain, weight loss, dizziness or light-headedness, blurred vision, hand tremor, muscle weakness, slurred speech, lack of coordination or unsteady gait, poor concentration mental slowing or confusion, forgetfulness or difficulty with memory/recall, drowsiness or sleepiness, worsening mood symptoms, skin rash, hair loss, thirst, dry mouth, metallic taste in mouth, loss of ability to taste food, need to pass urine much more frequently or more urgently, urinary incontinence. An overall side-effect score (SE score) was calculated for each patient based on the above 24 items and their respective grading. A score of zero was given for an absent side effect and increased to a score of 4 for a very severe side effect to give a maximum total score of 96 for each patient.
Each individual was genotyped and classified as having 0, 1 or 2 copies of the disease ‘risk’ GSK3B haplotypes (A-T-C, T-C-C and A-C-T) based on the three functional polymorphisms rs375557, rs334558 and rs6438552. In the subset of patients having a GSK-3B ‘risk’ haplotype and at least one H2 MAPT haplotype, a lower SE score was observed (12.3±2.2) compared to patients with no ‘risk’ haplotype (14.6±2.0).
The relationship between the ‘risk’ haplotypes in GSK3B and common side effect of lithium therapy, hand tremor, was then examined, the results of which are shown in Table 8. […] This information is pertinent, because lithium, which is a therapeutic agent for a number of disorders including bipolar affective disorders and Alzheimer's disease, has significant side effects. Accordingly, assays that detect the presence of a GSK-3B ‘risk’ haplotype optionally combined with detection of a MAPT H2 haplotype are useful for determining subjects likely to respond to treatment and/or that are unlikely to develop a side-effect as a result of treatment.

[2] = molecular target: endogenous Tau of COS-7 cells; test: cell-based or functional assay

Row | Compound | Odds Ratio, hand tremor present vs absent (pooled High GSKΔexon9 and Low GSKΔexon9+11 haplotypes vs others) ([1]; MAPT H1/H1) | Odds Ratio, hand tremor present vs absent (pooled High GSKΔexon9 and Low GSKΔexon9+11 haplotypes vs others) ([1]; MAPT H1/H2 + H2/H2 (at least one H2 haplotype)) | Odds Ratio, hand tremor present vs absent (pooled High GSKΔexon9 and Low GSKΔexon9+11 haplotypes vs others) ([1]; all MAPT haplotypes) | mean overall side-effect score (SE score) ([1]; GSK-3B 'risk' haplotype and at least one H2 MAPT haplotype) | mean overall side-effect score (SE score) ([1]; no 'risk' haplotype) | levels of Tau [pSer396] by ELISA in transfected COS-7 cells, compared with the other GSK-3β cDNAs [2] [fold]
1 | [Li] [lithium] | 1.32 | 0.24 | 0.57 | 12.3±2.2 | 14.6±2.0 | 
2 | GSKΔexon9+11 (GSK-3β splice isoform lacking exons 9 and 11) (from UniProt P49841 1-420) (enzyme) |  |  |  |  |  | 2.5
